For one assay, the system named is VCAM-1. Nature of the assay: VCAM-1 Assay: TNF-stimulated cells, cell-surface ELISA. It counts as cell-based. As to conditions: for IC50: bare number = IC50, NE not defined in the patent, read-out: VCAM-1 IC50 or % inhibition at [μM]: IC50. How it is done:
Two to four confluent P150 plates are trypsinized and the cells transferred to a 50 mL conical centrifuge tube. The cells are pelleted, resuspended, and counted using the trypan blue exclusion method.
Cells are resuspended at a concentration of 36,000 cells/mL and 1 mL is aliquoted per well.
Cells are split into 24 well tissue culture plates. The cells in each well should be approximately 90-95% confluent by the following day. Cells should not be older than passage 8.
Compounds are initially screened at 50 μM and 10 μM. A 50 mM stock solution for each compound is prepared in culture medium. The stock solution is diluted to 5 mM and 1 mM. When 10 μL of the 5 mM solution is added to the well (1 mL medium/well), the final concentration will be 50 μM. Adding 10 μL of the 1 mM solution to the well will give a final concentration of 10 μM.
Compounds which will not go into solution in culture medium are resuspended in DMSO at a concentration of 25 mM. The stock solution is then diluted to the final concentration in culture medium. The old medium is aspirated and 1 mL of the new medium with the compound is added. For example, if the final concentration is 50 μM, the 2 μL of the 25 mM stock is added per mL of culture medium. The […] solution is diluted for lower concentrations.
The compounds are added to the plate (each compound is done in duplicate). One plate is done for VCAM expression and one plate is done for ICAM expression.
Immediately after the compounds are added, TNF is added to each well. 100 units/mL TNF is usually added to each well. Since each lot of TNF varies in the number of units, each new lot is titrated to determine the optimum concentration. Therefore this concentration will change. If 100 units/mL is bing used, dilute the TNF to 10 units/μL and add 10 μL to each well.
The plates are incubated at 37° C., 5% CO2 overnight (approximately 16 hours). The next day the plates are checked under the microscope to see if there are any visual signs of toxicity. Records are made of any cell death, debris, or morphology changes, as well as insoluble compounds (particulate or turbity).
In order to assess MCP-1, the media (500 μL) is saved and frozen at −70° C. Wash cells once with roughly 1 ml/well of Hanks Balance Salt Solution (HBSS) or PBS. Gently empty the wash solution and then tap the plate onto paper towels. Add either 250 μL/well of HBSS +5% FCCS to the plank (no primary antibody wells) or 250 μL/well of primary antibody diluted in HBSS +5% FCS. Incubate for 30 minutes at 37° C. Wash the wells twice with 0.5 mL/well HBSS or PBS and gently tap the plates onto paper towels after the last wash. Add 250 μL/well of HRP-conjugated second antibody diluted in HBSS +5% FCS to every well including the blank wells (no primary antibody). Incubate at 37° C. for 30 minutes. Wash the wells four times with 0.5 mL/well HBSS or PBS and gently tap the plates onto paper towels after the last wash. Add 250 μL/well of substrate solution. Incubate at room temperature in the dark until there is adequate color development (blue). Note the length of time incubation was performed (typically 15-30 minutes). Add 75 μL/well stopper solution (8N sulfuric acid), and read A450 nm.

The test system of the next assay is ApoB/HepG2. The experiment in a line: Lipid Screen & IC50 Determination Protocol: ApoB ELISA of HEPG2 media. It counts as cell-based, human. The conditions noted are these: HEPG2, 24 hours; for IC50: bare number = IC50, NE not defined in the patent, read-out: ApoB/HepG2 IC50 or % inhibition at [μM]: IC50; for ApoB/HepG2 % inhibition at [μM]: at 15 μM. How it is done:
HEPG2 cell was started in 10 ml of MEM, 10% FBS, 1 mM Sodium Pyruvate. The cells were incubated in a tissue culture incubator. The cells were split into 4×96-wells plate in MEM, 10% FBS, 1 mM Sodium Pyruvate and allowed to grow to about 50% confluency and then removed.
The cells were treated with the desired concentration of compounds in 100 μl DMEM, 1% RSA for 24 hours. The compounds are dissolved in DMSO.
On the same day, 4×96-wells NuncImmunoSorb plate is coated with 100 μl of mouse anti-human ApoB monoclonal 1D1 (1:1000 dilution in 1×PBS, pH 7.4). The coating is allowed overnight.
The coated plate is washed 3 times with 1×PBS, pH 7.4, −0.05% Tween 20. 100 μl of the standards is added to the selected wells. ApoB standards are prepared at 6.25, 3.12, 1.56, 0.78, 0.39 ng, and each concentration is done in triplicates. For samples:
90 μl of 1×PBS, pH 7.4, −0.05% Tween 20 is added to each well corresponding to the sample. 10 μl of media is transferred from the treated HEPG2 plates to the ApoB ELISA plate. The plate is incubated at room temperature for 2 hours, rocking gently.
Wash the coated plate 3× with 1×PBS, pH 7.4, −0.05% Tween 20. Add 100 μl of sheep anti-human ApoB polyclonal from Boehringer Mannheim. (1:2000 dilution in 1×PBS, pH 7.4, −0.05% Tween 20) from Boehringer Mannheim. Incubate at room temperature for 1 hour, rocking gently. Wash the coated plate 3× with 1×PBS, pH 7.4, −0.05% Tween 20. Add 100 μl of rabbit anti-sheep IgG (1:2000 dilution in 1×PBS, pH 7.4, −0.05% Tween 20). Incubate at room temperature for 1 hour, rocking gently. Wash the coated plate 3× with 1×PBS, pH 7.4, −0.05% Tween 20. Add 100 μl of substrate (10 ml of distilled water, 100 μl of TMB (10 mg/ml), and 1 μl of hydrogen peroxide). Allow color to emerge and stop reaction with 25 ul of 8N sulfuric acid. Wells are read with MicroPlate Reader @ […]. Graph accumulation of ApoB in media as a percentage of control for each sample and their concentration. A determination of IC50 is obtained from the graph.
The degree of inhibition of the compounds of formulas (I) and (II) was determined by the assays described in Examples 62-64.

The values below come from patent publication US6602914B2, “Compounds and methods for the inhibition of the expression of VCAM-1” (AtheroGenics, Inc., priority 1997, dated 2003).

Molecules are shown by their SMILES.

As to `CC(C)(C)c1cc(SCc2ccc([N+](=O)[O-])cc2)cc(C(C)(C)C)c1O` [2,6-di-tert-butyl4-thio(4′-nitrobenzyl)phenol], the IC50 in the assay with VCAM-1 was found to be 10 µM; in the assay with ApoB/HepG2, 27 µM.
With `CC(C)(C)c1cc(SCc2ccc(CC(=O)O)cc2)cc(C(C)(C)C)c1O` [2,6-di-tert-butyl-4-thio(4′(methyl)phenylacetic acid))phenol], in the assay with VCAM-1, the IC50 worked out at 80 µM. Moreover, the “ApoB/HepG2 % inhibition at [μM]” value in the assay on ApoB/HepG2 amounted to 7% at 15.
As to `CC(C)(Sc1cc(C(C)(C)C)c(O)c(C(C)(C)C)c1)Sc1cc(C(C)(C)C)c(OC(=O)CCCC(=O)O)c(C(C)(C)C)c1` [Pentanedioic acid, mono[4-[[1-[[3,5-bis(1,1-dimethylethyl)-4-hydroxyphenyl]thio]-1-methylethyl]thio]-2,6-bis(1,1-dimethylethyl)phenyl] ester], in the assay on VCAM-1, the IC50 is 8.7 µM. The “ApoB/HepG2 % inhibition at [μM]” value with ApoB/HepG2 is 70% at 15.
Consider `CC(=O)Oc1ccc(CSc2cc(C(C)(C)C)c(O)c(C(C)(C)C)c2)cc1` [2,6-di-tert-butyl-4-thio(4′-acetoxybenzyl)phenol], for which the figures for the IC50 in the assay on VCAM-1 and in the assay on ApoB/HepG2 were 18 µM and 40 µM, respectively.
Regarding `CN(C)Cc1ccc(CSc2cc(C(C)(C)C)c(O)c(C(C)(C)C)c2)o1` [2,6-di-tert-butyl-4-thio(5′-methyl-2′-((dimethylamino)methyl)furan)phenol], the IC50 in the assay on VCAM-1 was determined as 10 µM; with ApoB/HepG2, 19 µM.
Turning to `CC(C)(Sc1cc(C(C)(C)C)c(O)c(C(C)(C)C)c1)Sc1cc(C(C)(C)C)c(OC(=O)CCC(=O)O)c(C(C)(C)C)c1` [Butanedioic acid, mono [4-[[1-[[3,5-bis(1,1-dimethylethyl)-4-hydroxyphenyl]thio]-1-methylethyl]thio]2,6-bis(1,1-dimethylethyl)phenyl]ester], the IC50 with VCAM-1 turned out to be 5.6 µM. Also, the “ApoB/HepG2 % inhibition at [μM]” value in the assay on ApoB/HepG2 was 65% at 15.
For `CC(C)(C)c1cc(SCc2ccc(CCO)cc2)cc(C(C)(C)C)c1O` [2,6-di-tert-butyl-4-thio(4′-(methyl)phenylethyl alcohol))phenol] the same measures were 15 µM and 53% at 15.
Turning to `CN(C)S(=O)(=O)c1ccc(CSc2cc(C(C)(C)C)c(O)c(C(C)(C)C)c2)cc1` [2,6-di-tert-butyl-4-thio(4′-methyl-N,N-dimethylbenzenesulfonamide)phenol], the IC50 was 20 µM in the assay on VCAM-1 and 31 µM with ApoB/HepG2.
As for `CC(C)(C)c1cc(SCc2ccc([N+](=O)[O-])cc2[N+](=O)[O-])cc(C(C)(C)C)c1O` [2,6-di-tert-butyl4-thio(2′,4′-dinitrobenzyl)phenol], the figures for the IC50 in the assay with VCAM-1 and with ApoB/HepG2 were 8 µM and 32 µM, respectively.
For `CC(C)(C)c1cc(SCc2cccc([N+](=O)[O-])c2)cc(C(C)(C)C)c1O` [2,6-di-tert-butyl-4-thio(3′-nitrobenzyl)phenol], the IC50 is 13 µM with VCAM-1 and 20 µM in the assay with ApoB/HepG2.
As to `CC(C)(C)c1cc(SCc2ccc(C(F)(F)F)cc2)cc(C(C)(C)C)c1O` [(2,6-di-tert-butyl4-thio(4′-(trifluoromethyl)benzyl)phenol], the IC50 in the assay with VCAM-1 was 5 µM; with ApoB/HepG2, 16 µM.
For the compound `CC(C)(C)c1cc(SCc2ccc(F)cc2)cc(C(C)(C)C)c1O` [2,6-di-tert-butyl-4-thio(4′-fluorobenzyl)phenol], the IC50 in the assay on VCAM-1 is 35 µM; with ApoB/HepG2 it was 30 µM.
On to `CC(C)(C)c1cc(S(=O)(=O)Cc2ccc([N+](=O)[O-])cc2)cc(C(C)(C)C)c1O` [2,6-di-tert-butyl4-(sulfonyl-(4′-nitrobenzyl))phenol], for which the IC50 amounted to 40 µM in the assay on VCAM-1 and 25 µM in the assay on ApoB/HepG2.
The corresponding values for `Cc1ccc(CSc2cc(C(C)(C)C)c(O)c(C(C)(C)C)c2)cc1` [2,6-di-tert-butyl-4-thio(4′-methylbenzyl)phenol] are 75 µM and 22 µM.
Take `CC(C)(Sc1cc(C(C)(C)C)c(O)c(C(C)(C)C)c1)Sc1cc(C(C)(C)C)c(OCc2ccc([N+](=O)[O-])cc2)c(C(C)(C)C)c1` [Phenol, 4-[[1-[3,5-bis(1,1-dimethylethyl)-4-[(4-nitrophenyl)methoxy]phenyl]thio]-1-methylethyl]thio]2,6-bis(1,1-dimethylethyl)-]: the “VCAM-1 % inhibition at [μM]” value in the assay with VCAM-1 (at 50 μM) came to 30% at 50. For the same compound, the “ApoB/HepG2 % inhibition at [μM]” value with ApoB/HepG2 turned out to be 17% at 15.
